Experimental data as given in PMC5042178, “Amino acid residues of bitter taste receptor TAS2R16 that determine sensitivity in primates to β-glycosides” (Biophysics and Physicobiology, 2016).
Where a chain is given by its changes, count along the chain named. Where two headings read alike, the source gives them in different places.

Legend:
Assay in all cases: calcium imaging (Calcium-4), HEK […]
Type in all cases: cell-based
[1] = molecular target: T1, human TAS2R16 (Homo sapiens, UniProt Q9NYV7)
T1 construct: full-length; N-terminal 45 residues of rat SSTR3 and C-terminal 8 residues of bovine rhodopsin as tags; pEAK10, HEK 293T with G16gust44
T1 sequence (Q9NYV7 1-291): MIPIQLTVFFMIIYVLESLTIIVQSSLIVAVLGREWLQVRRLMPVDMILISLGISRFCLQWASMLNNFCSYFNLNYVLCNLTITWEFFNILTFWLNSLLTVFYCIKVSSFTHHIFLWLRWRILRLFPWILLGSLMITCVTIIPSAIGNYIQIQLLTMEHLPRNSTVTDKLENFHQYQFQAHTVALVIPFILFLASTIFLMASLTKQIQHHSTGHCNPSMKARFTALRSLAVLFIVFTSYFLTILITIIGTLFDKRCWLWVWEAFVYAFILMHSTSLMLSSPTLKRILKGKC

[2] = molecular target: T2, human TAS2R16 (Homo sapiens, UniProt Q9NYV7, S133C)
T2 construct: full-length; N-terminal 45 residues of rat SSTR3 and C-terminal 8 residues of bovine rhodopsin as tags; pEAK10, HEK 293T with G16gust44
T2 sequence (Q9NYV7 1-291 S133C): T1 sequence (Q9NYV7 1-291) with S133C

[3] = molecular target: T3, human TAS2R16 (Homo sapiens, UniProt Q9NYV7, E86T/I247M)
T3 construct: full-length; N-terminal 45 residues of rat SSTR3 and C-terminal 8 residues of bovine rhodopsin as tags; pEAK10, HEK 293T with G16gust44
T3 sequence (Q9NYV7 1-291 E86T/I247M): T1 sequence (Q9NYV7 1-291) with E86T, I247M

[4] = molecular target: T4, human TAS2R16 (Homo sapiens, UniProt Q9NYV7, L125W)
T4 construct: full-length; N-terminal 45 residues of rat SSTR3 and C-terminal 8 residues of bovine rhodopsin as tags; pEAK10, HEK 293T with G16gust44
T4 sequence (Q9NYV7 1-291 L125W): T1 sequence (Q9NYV7 1-291) with L125W

[5] = molecular target: T5, human TAS2R16 (Homo sapiens, UniProt Q9NYV7, V260F)
T5 construct: full-length; N-terminal 45 residues of rat SSTR3 and C-terminal 8 residues of bovine rhodopsin as tags; pEAK10, HEK 293T with G16gust44
T5 sequence (Q9NYV7 1-291 V260F): T1 sequence (Q9NYV7 1-291) with V260F

[6] = molecular target: T6, human TAS2R16 (Homo sapiens, UniProt Q9NYV7, E86T/I247M/V260F)
T6 construct: full-length; N-terminal 45 residues of rat SSTR3 and C-terminal 8 residues of bovine rhodopsin as tags; pEAK10, HEK 293T with G16gust44
T6 sequence (Q9NYV7 1-291 E86T/I247M/V260F): T1 sequence (Q9NYV7 1-291) with E86T, I247M, V260F

[7] = molecular target: T7, human TAS2R16 (Homo sapiens, UniProt Q9NYV7, I247M)
T7 construct: full-length; N-terminal 45 residues of rat SSTR3 and C-terminal 8 residues of bovine rhodopsin as tags; pEAK10, HEK 293T with G16gust44
T7 sequence (Q9NYV7 1-291 I247M): T1 sequence (Q9NYV7 1-291) with I247M

[8] = molecular target: T8, human TAS2R16 (Homo sapiens, UniProt Q9NYV7, E86T/V260F)
T8 construct: full-length; N-terminal 45 residues of rat SSTR3 and C-terminal 8 residues of bovine rhodopsin as tags; pEAK10, HEK 293T with G16gust44
T8 sequence (Q9NYV7 1-291 E86T/V260F): T1 sequence (Q9NYV7 1-291) with E86T, V260F

[9] = molecular target: T1, human TAS2R16; details: G16gust44 co-expressed; agonist

Structure (SMILES): N#C[C@H](O[C@@H]1O[C@H](CO[C@@H]2O[C@H](CO)[C@@H](O)[C@H](O)[C@H]2O)[C@@H](O)[C@H](O)[C@H]1O)c1ccccc1 [amygdalin]
- EC50 [1]: 760 ± 400 µM

Structure (SMILES): OCc1ccccc1O[C@@H]1O[C@H](CO)[C@@H](O)[C@H](O)[C@H]1O [salicin]
- EC50 [2]: 74 ± 6 µM
- EC50 [3]: 3540 ± 550 µM
- EC50 [4]: 200 ± 50 µM
- EC50 [5]: 1280 ± 180 µM
- EC50 [6]: 5090 ± 1100 µM
- EC50 [7]: 1400 ± 90 µM
- EC50 [8]: 3650 ± 1000 µM
- EC50 [9]: plotted with wild-type human and macaque TAS2R16s
